Measured values: article PMC11597089, “Kratom Alkaloids: A Blood–Brain Barrier Specific Membrane Permeability Assay-Guided Isolation and Cyclodextrin Complexation Study” (Molecules, 2024)

Columns and labels:
[1] = phase-solubility study, HP-β-CD; assay type: physicochemical; conditions: 30 mM phosphate buffer pH 7.4, room temperature
Procedure: (§1) Based on our ACE measurements, the promising CDs were selected for phase-solubility studies, along with the most widely used CD excipients, to investigate the effect of CD type and its concentration on mitragynine solubility. The experiments were conducted under conditions similar to those in the ACE measurements, applying 30 mM phosphate buffer (pH 7.4) and room temperature.
(§2) UV spectra and chromatograms were recorded at 200–400 nm, and the chromatogram obtained at 226 nm was used for quantitative analyses.
(§3) Solubility measurements were performed according to Higuchi and Connors. To each 1 mg mitragynine sample, the selected cyclodextrins were added. The final concentration of the CDs was in the range of 0–1 (m/v) %. Suspensions were shaken at room temperature for 24 h and filtered using 0.22 μm filters. The mitragynine concentration in the samples was determined by the above-described UHPLC-UV method. The solubility diagrams were constructed, and the stability constant (Kstab) and complexation efficacy (CE) were calculated using the following formulas:(5) Kstab=slope/S0(1−slope) (6) CE=slope/1−slope where S0 is the intrinsic solubility of a poorly soluble drug. The experiments were performed in a 30 mM phosphate buffer (pH 7.4).

[2] = design: method as in PMID 20454783; conditions: rats, in words; cited from earlier work
[3] = phase-solubility study, Subetadex; assay type: physicochemical; conditions: 30 mM phosphate buffer pH 7.4, room temperature; for complexation efficacy (CE) with Subetadex: phase solubility, calculated from the linear part of the isotherm
Procedure: as §1
In the case of Subetadex, which had the highest solubility enhancement, an AN-type isotherm could be observed with a negative deviation from linearity, indicating a complex process: either the host ratio inside the complex increased, the solvent–solute interactions altered, or both contributed simultaneously.
as §2, §3

[4] = phase-solubility study, SBE-β-CD DS~6.5; assay type: physicochemical; conditions: 30 mM phosphate buffer pH 7.4, room temperature
Procedure: as §1, §2, §3

[5] = phase-solubility study, Sugammadex; assay type: physicochemical; conditions: 30 mM phosphate buffer pH 7.4, room temperature
Procedure: as §1, §2, §3

[6] = ACE complex stability, S-γ-CD; assay type: physicochemical; conditions: sulfated-γ-CD DS~14, 30 mM phosphate buffer pH 7.4, 25 °C
Procedure: (§4) To investigate the CD complexation behavior of the four kratom alkaloids, we aimed to develop an ACE method for a systematic comparative study. […] To ensure sufficient buffer capacity and to avoid excessive current and Joule heat generation, the buffer concentration was set to 30 mM, and the applied voltage was 15 kV.
(§5) The ACE experiments were performed by using Agilent 7100 and HP^3DCE instruments (Agilent Technologies, Waldbronn, Germany). Untreated fused silica capillaries (total length of 48.5 cm, effective length of 40 cm, inner diameter of 50 μm) were purchased from Agilent Technologies. The new capillaries were conditioned with a 1 M NaOH wash for 1 h, followed by a 30 min wash each with 0.1 M NaOH and purified water. Prior to all runs, the capillary was preconditioned by rinsing with background electrolyte for 3 min. During the measurements, 30 mM phosphate buffer at pH 7.4 (30 mM Na2HPO4-NaOH) was used. The background electrolyte contained CDs at various concentrations. […] The electropherograms were recorded at four wavelengths (200 nm, 210 nm, 215 nm, and 220 nm), and the data were evaluated at 215 nm. […] The measurements were evaluated using Origin and CEval software (v. 0.6i3). […]

[7] = phase-solubility study, SBE-β-CD DS~10.4; assay type: physicochemical; conditions: 30 mM phosphate buffer pH 7.4, room temperature
Procedure: as §1, §2, §3

[8] = design: method as in PMID 25793541; conditions: at neutral pH; cited from earlier work
[9] = phase-solubility study, S-β-CD; assay type: physicochemical; conditions: 30 mM phosphate buffer pH 7.4, room temperature
Procedure: as §1, §2, §3

[10] = design: method as in PMID 24841968; conditions: after 2 h; cited from earlier work
[11] = phase-solubility study, CM-β-CD; assay type: physicochemical; conditions: 30 mM phosphate buffer pH 7.4, room temperature
Procedure: as §1, §2, §3

[12] = phase-solubility study, RAME-β-CD; assay type: physicochemical; conditions: 30 mM phosphate buffer pH 7.4, room temperature
Procedure: as §1, §2, §3

[13] = design: method as in PMID 25793541; conditions: at pH 7; cited from earlier work
[14] = phase-solubility study, β-CD; assay type: physicochemical; conditions: 30 mM phosphate buffer pH 7.4, room temperature
Procedure: as §1, §2, §3

[15] = design: method as in PMID 28551311; conditions: in vivo microdialysis technique, in words; cited from earlier work
[16] = ACE complex stability, S-β-CD; assay type: physicochemical; conditions: sulfated-β-CD DS~13, 30 mM phosphate buffer pH 7.4, 25 °C
Procedure: as §4, §5

[17] = ACE complex stability, SBE-β-CD DS~10.4; assay type: physicochemical; conditions: sulfobutyl-ether-β-CD DS~10.4, 30 mM phosphate buffer pH 7.4, 25 °C
Procedure: as §4, §5

Compound: mitragynine
- Kstab with HP-β-CD (phase solubility) ([1]; 24 h, CD 0–1 (m/v) %): 30 M⁻¹
- complexation efficacy (CE) with HP-β-CD ([1]; phase solubility): 0.0011
- oral bioavailability [2]: limited
- phase-solubility isotherm type with Subetadex [3]: AN-type
- Kstab with Subetadex (phase solubility) ([3]; 24 h, CD 0–1 (m/v) %): 1730 M⁻¹
- complexation efficacy (CE) with Subetadex [3]: 0.0650
- complexation efficacy (CE) with Subetadex ([3]; listed as mitragynine): 0.065
- Kstab with SBE-β-CD DS~6.5 (phase solubility) ([4]; 24 h, CD 0–1 (m/v) %): 480 M⁻¹
- complexation efficacy (CE) with SBE-β-CD DS~6.5 ([4]; phase solubility): 0.0181
- Kstab with Sugammadex (phase solubility) ([5]; 24 h, CD 0–1 (m/v) %): 1150 M⁻¹
- complexation efficacy (CE) with Sugammadex ([5]; phase solubility): 0.0431
- complex stability constant (Kstab) with S-γ-CD [6]: 810 ± 75 M⁻¹
- Kstab with SBE-β-CD DS~10.4 (phase solubility) ([7]; 24 h, CD 0–1 (m/v) %): 1020 M⁻¹
- complexation efficacy (CE) with SBE-β-CD DS~10.4 ([7]; phase solubility): 0.0382
- aqueous solubility [8]: 88 µg/mL
- Kstab with S-β-CD (phase solubility) ([9]; 24 h, CD 0–1 (m/v) %): 340 M⁻¹
- complexation efficacy (CE) with S-β-CD ([9]; phase solubility): 0.0127
- degraded under acidic conditions [10]: more than 26%
- Kstab with CM-β-CD (phase solubility) ([11]; 24 h, CD 0–1 (m/v) %): 300 M⁻¹
- complexation efficacy (CE) with CM-β-CD ([11]; phase solubility): 0.0113
- Kstab with RAME-β-CD (phase solubility) ([12]; 24 h, CD 0–1 (m/v) %): 60 M⁻¹
- complexation efficacy (CE) with RAME-β-CD ([12]; phase solubility): 0.0023
- logD [13]: 1.73
- Kstab with β-CD (phase solubility) ([14]; 24 h, CD 0–1 (m/v) %): 55 M⁻¹
- complexation efficacy (CE) with β-CD ([14]; phase solubility): 0.0021
- blood–brain barrier permeability [15]: excellent

Compound: CC[C@H]1CN2CCc3c([nH]c4cccc(OC)c34)[C@@H]2C[C@@H]1/C(=C\OC)C(=O)OC [Speciogynine, speciogynine]
- complex stability constant (Kstab) with S-β-CD [16]: 970 ± 80 M⁻¹
- complex stability constant (Kstab) with SBE-β-CD DS~10.4 [17]: ~10,000 M^−1
